Measurements published in patent US8685423B2, “Controlling mealybugs” (priority 2011, dated 2014).

System: mealybug, Pseudococcus spp.
Experiment: Field efficacy on mealy bug, small-plot trials on cotton (Trials A, B, C)
Assay type: in vivo
Conditions: Sulfoxaflor 50 g/ha, Chlorpyrifos 500 g/ha, mixture 50 + 500 g/ha
Procedure: Field Efficacy on Mealy Bug
Applications were made to cotton, Gossypium hirsutum, using small-plot efficacy methods. Chemicals were diluted in water and all treatments were applied using a backpack sprayer calibrated to deliver 500 liters of spray per hectare. Experimental plots measured 5 by 10 meters and each treatment was replicated three times in each trial. Prior to treatment, 20 plants that were uniformly infested with mealybug, Pseudococcus spp., were marked in each experimental plot. At the specified intervals after treatment, the severity of mealybug infestation on the marked plants was rated using a 0-4 scale, where 0=no infestation and 4=stunted, blackened plant. The score for each plant in each experimental plot was summed to provide a total severity score for the plot. Data were transformed to percent control relative to the untreated plots, then subjected to analysis of variance, and means were separated using Tukey's HSD (p=0.1). Expected control was calculated using the method of Colby and compared to observed control. See the Table Section for the results of the Field Trials.

SMILES	% Control (Trial A, 3 DAT) [%]	% Control (Trial A, 7 DAT) [%]	% Control (Trial A, 11 DAT) [%]	% Control (Trial B, 3 DAT) [%]	% Control (Trial B, 7 DAT) [%]	% Control (Trial B, 11 DAT) [%]	% Control (Trial B, 14 DAT) [%]	% Control (Trial C, 4 DAT) [%]	% Control (Trial C, 8 DAT) [%]	% Control (Trial C, 11 DAT) [%]	% Control (Trial C, 14 DAT) [%]
CCOP(=S)(OCC)Oc1nc(Cl)c(Cl)cc1Cl [Chlorpyrifos]	35.64	43.34	43.60	35.23	38.80	33.51	26.89	36.44	33.37	28.24	23.03
CC(c1ccc(C(F)(F)F)nc1)S(C)(=O)=NC#N (stereo not shown) [Sulfoxaflor]	17.56	21.65	20.68	−2.66	7.81	7.81	5.32	7.39	9.19	4.76	2.49
